Source: US20190239511A1, “Synergistic Combinations Of Monochloramine And Peroxide Compound, And Methods Of Using The Same For Microbial Control” (Buckman Laboratories International, Inc., priority 2018, published 2019)

System: bacteria in 35 wt % corn slurry solution
Test: Bacterial growth control in corn slurry, bacteria count and reduction (Example 2, Table 1 and FIG. 5)
Format: cell-based
Experimental: The effect of combined amounts of hydrogen peroxide and monochloramine at other tested addition amounts on bacterial growth control and their addition timing was further studied using laboratory experiments. For this additional study, laboratory experiments were performed using hydrogen peroxide at dosages of 100 ppm and 200 ppm, and monochloramine (“Oxamine”) at dosages of 25 ppm, 50 ppm, 75 ppm, and 100 ppm. The time between peroxide and monochloramine addition was up to 10 minutes (i.e., 0-10 minutes). All experiments were carried out with 35 wt % corn slurry solution.

Structure (SMILES) | % Reduction (100 ppm H2O2 alone) | Bacteria Count (100 ppm H2O2 alone) | % Reduction (200 ppm H2O2 alone) | Bacteria Count (200 ppm H2O2 alone) | % Reduction (25 ppm Oxamine alone) | Bacteria Count (25 ppm Oxamine alone) | % Reduction (50 ppm Oxamine alone) | Bacteria Count (50 ppm Oxamine alone) | % Reduction (75 ppm Oxamine alone) | Bacteria Count (75 ppm Oxamine alone) | % Reduction (100 ppm Oxamine alone) | Bacteria Count (100 ppm Oxamine alone)
OO [H2O2, hydrogen peroxide] | 0.00% | 5.E+06 | 18.37% | 4.E+06 |  |  |  |  |  |  |  | 
NCl [Oxamine, monochloramine] |  |  |  |  | 98.99% | 5.E+04 | 99.93% | 4.E+03 | 99.97% | 1.E+03 | 99.98% | 9.E+02
